Patent US20220033407A1, “N-(pyridin-2-ylsulfonyl)cyclopropanecarboxamide Derivatives and their Use in the Treatment of Disease” (NOVARTIS AG, priority 2018, published 2022)

Target: T1, delF508-CFTR-HRP (Homo sapiens, UniProt P13569, DEL508-508)
T1 construct: expressed in transfected cells
Experiment: Measurement of delF508-CFTR-HRP surface expression in CFBE41o- cells (HRP luminescence);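 for DelF508-CFTR-HRP Amax %: percent efficacy relative to a reference CFTR corrector compound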
Type: cell-based
Conditions: for Emax: CFBE41o-, read-out: DelF508-CFTR-HRP Amax %; for EC50: mean of at least two replicates
In short: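 EC50 derived by logistic regression of triplicate surface-HRP luminescence, plate-normalized to the lowest-concentration median. Doxycycline (500 ng/mL, 48 h) induced delF508-CFTR-HRP in CFBE41o- cells; compounds then applied 24 h at 37° C, 10 μM top, 3-fold over 10 points.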

T1 sequence (P13569 with tags, fused parts or gaps DEL508-508): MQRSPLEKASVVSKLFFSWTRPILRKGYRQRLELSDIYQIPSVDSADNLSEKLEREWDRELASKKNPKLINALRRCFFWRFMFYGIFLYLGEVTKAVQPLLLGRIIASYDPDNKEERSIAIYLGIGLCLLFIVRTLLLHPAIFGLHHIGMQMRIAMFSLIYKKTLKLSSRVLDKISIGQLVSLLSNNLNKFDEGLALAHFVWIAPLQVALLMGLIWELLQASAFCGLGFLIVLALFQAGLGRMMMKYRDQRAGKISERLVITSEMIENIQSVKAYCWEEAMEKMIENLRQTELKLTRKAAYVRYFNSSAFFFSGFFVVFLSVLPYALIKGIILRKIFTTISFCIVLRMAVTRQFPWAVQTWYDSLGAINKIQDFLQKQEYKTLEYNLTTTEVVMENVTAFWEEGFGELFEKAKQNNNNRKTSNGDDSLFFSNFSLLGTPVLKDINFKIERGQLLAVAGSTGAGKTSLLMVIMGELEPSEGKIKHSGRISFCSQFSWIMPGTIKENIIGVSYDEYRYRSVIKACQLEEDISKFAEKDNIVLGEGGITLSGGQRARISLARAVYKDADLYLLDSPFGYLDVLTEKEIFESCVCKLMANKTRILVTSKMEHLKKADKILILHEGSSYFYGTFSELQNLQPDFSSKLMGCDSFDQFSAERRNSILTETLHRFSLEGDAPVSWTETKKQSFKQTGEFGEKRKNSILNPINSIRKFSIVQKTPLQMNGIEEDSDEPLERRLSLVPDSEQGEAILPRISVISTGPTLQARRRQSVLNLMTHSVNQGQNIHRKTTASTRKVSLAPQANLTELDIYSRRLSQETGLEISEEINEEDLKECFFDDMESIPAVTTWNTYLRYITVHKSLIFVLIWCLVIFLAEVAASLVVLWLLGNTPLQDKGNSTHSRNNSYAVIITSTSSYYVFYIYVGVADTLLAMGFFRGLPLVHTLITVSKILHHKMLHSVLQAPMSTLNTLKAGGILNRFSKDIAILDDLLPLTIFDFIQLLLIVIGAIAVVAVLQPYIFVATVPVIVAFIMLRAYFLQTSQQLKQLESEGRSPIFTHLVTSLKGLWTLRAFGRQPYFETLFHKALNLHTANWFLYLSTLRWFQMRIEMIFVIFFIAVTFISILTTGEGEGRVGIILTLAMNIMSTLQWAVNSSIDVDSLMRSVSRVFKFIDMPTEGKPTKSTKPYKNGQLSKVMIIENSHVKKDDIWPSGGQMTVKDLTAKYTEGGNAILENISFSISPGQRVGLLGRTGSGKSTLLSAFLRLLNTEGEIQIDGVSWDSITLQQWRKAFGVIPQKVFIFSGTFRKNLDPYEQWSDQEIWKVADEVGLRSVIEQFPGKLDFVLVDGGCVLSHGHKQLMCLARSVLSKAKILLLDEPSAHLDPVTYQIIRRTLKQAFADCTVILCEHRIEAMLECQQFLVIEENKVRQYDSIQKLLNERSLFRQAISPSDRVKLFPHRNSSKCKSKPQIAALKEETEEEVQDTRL

SMILES	Emax [%]	EC50 [nM]	DelF508-CFTR-HRP Amax % [%]
CC1(C)CCN(c2ccc(Cl)cc2OC2(C(=O)NS(=O)(=O)c3cccc(N4CC5CCC(C4)O5)n3)CC2)CC1 [Example 9-40, N-((6-(8-Oxa-3-azabicyclo[3.2.1]octan-3-yl)pyridin-2-yl)sulfonyl)-1-(5-chloro-2-(4,4-dimethylpiperidin-1-yl)phenoxy)cyclopropane-1-carboxamide]	693	1510	–
CC1(NC(=O)OC(C)(C)C)CCN(c2cccc(S(=O)(=O)NC(=O)C3(Oc4cc(Cl)ccc4C4CC5(CCC5)C4)CC3)n2)CC1 [Example 7-7, Tert-butyl (1-(6-(N-(1-(5-chloro-2-(spiro[3.3]heptan-2-yl)phenoxy)cyclopropanecarbonyl)sulfamoyl)pyridin-2-yl)-4-methylpiperidin-4-yl)carbamate]	357	590	–
CC1CC(C)CN(c2ccc(Cl)cc2OC2(C(=O)NS(=O)(=O)c3cccc(N4CC[C@H](O)C4)n3)CC2)C1 (stereo partly drawn) [Example 9-17, 1-(5-Chloro-2-(3,5-dimethylpiperidin-1-yl)phenoxy)-N-((6-((S)-3-hydroxypyrrolidin-1-yl)pyridin-2-yl)sulfonyl)cyclopropanecarboxamide]	176	1290	–
O=C(NS(=O)(=O)c1cccc(N2CC[C@H](O)C2)n1)C1(Oc2cc(Cl)ccc2C2CC3(CCC3)C2)CCCC1 [Example 7-20, (S)-1-(5-Chloro-2-(spiro[3.3]heptan-2-yl)phenoxy)-N-((6-(3-hydroxypyrrolidin-1-yl)pyridin-2-yl)sulfonyl)cyclopentane-1-carboxamide]	280	540	–
CC(C)[C@H](CO)Nc1cccc(S(=O)(=O)NC(=O)C2(Oc3cc(Cl)ccc3N3CCC(C)(C)CC3)CC2)n1 [Example 9-38, (R)-1-(5-Chloro-2-(4,4-dimethylpiperidin-1-yl)phenoxy)-N-((6-((1-hydroxy-3-methylbutan-2-yl)amino)pyridin-2-yl)sulfonyl)cyclopropane-1-carboxamide]	789	1470	–
CC1(C)CCN(c2ccc(Cl)cc2OC2(C(=O)NS(=O)(=O)c3cccc(N4CCCC(C)(O)C4)n3)CC2)CC1 (single isomer, unassigned) [Example 9-43-2, 1-(5-Chloro-2-(4,4-dimethylpiperidin-1-yl)phenoxy)-N-((6-(3-hydroxy-3-methylpiperidin-1-yl)pyridin-2-yl)sulfonyl)cyclopropane-1-carboxamide]	–	1920	367.4
Cc1ccc(OC2CCC(C(C)(C)C)CC2)c(OC2(C(=O)NS(=O)(=O)c3cccc(N4CCC(O)(C(F)(F)F)CC4)n3)CC2)c1 (stereo not shown) [Example 6-8, 1-(2-((4-(tert-butyl)cyclohexyl)oxy)-5-methylphenoxy)-N-((6-(4-hydroxy-4-(trifluoromethyl)piperidin-1-yl)pyridin-2-yl)sulfonyl)cyclopropanecarboxamide]	428	210	–
Cc1ccc(C2CCC(C)(C)OC2)c(OC2(C(=O)NS(=O)(=O)c3cccc(N4CC[C@H](O)C4)n3)CC2)c1 (single isomer, unassigned) [Example 4-24-2]	–	3000	249
Cc1ccc(OCC(C)C)c(OC2(C(=O)NS(=O)(=O)c3cccc(N4CC[C@H](O)C4)n3)CC2)c1 [Example 6-15, (S)—N-((6-(3-hydroxypyrrolidin-1-yl)pyridin-2-yl)sulfonyl)-1-(2-isobutoxy-5-methylphenoxy)cyclopropanecarboxamide]	215	2940	–
CC(C)(C)OC1CCN(c2ccc(Cl)cc2OC2(C(=O)NS(=O)(=O)c3cccc(N4CC[C@H](O)C4)n3)CC2)C1 (stereo partly drawn) [Example 9-32, 1-(2-(3-(Tert-butoxy)pyrrolidin-1-yl)-5-chlorophenoxy)-N-((6-((S)-3-hydroxypyrrolidin-1-yl)pyridin-2-yl)sulfonyl)cyclopropanecarboxamide]	485	1180	–
Cc1ccc(C2CC2C(F)(F)F)c(OC2(C(=O)NS(=O)(=O)c3cccc(N)n3)CC2)c1 (single isomer, unassigned) [Example 1-3-1, N-((6-aminopyridin-2-yl)sulfonyl)-1-(5-methyl-2-(2-(trifluoromethyl)cyclopropyl)phenoxy)cyclopropane-1-carboxamide]	–	4180	65
CC1(O)CCN(c2cccc(S(=O)(=O)NC(=O)C3(Oc4cc(Cl)ccc4N4CCC(C(C)(C)C)CC4)CC3)n2)CC1 [Example 9-35, 1-(2-(4-(Tert-butyl)piperidin-1-yl)-5-chlorophenoxy)-N-((6-(4-hydroxy-4-methylpiperidin-1-yl)pyridin-2-yl)sulfonyl)cyclopropanecarboxamide]	140	340	–
Cc1ccc(C2CCCCC2)c(OC2(C(=O)NS(=O)(=O)c3cccc(N4CCC5(CCCC5N)CC4)n3)CC2)c1 (single isomer, unassigned) [Example 2-32-2, N-((6-(1-Amino-8-azaspiro[4.5]decan-8-yl)pyridin-2-yl)sulfonyl)-1-(2-cyclohexyl-5-methylphenoxy)cyclopropanecarboxamide]	–	1900	283
Cc1ccc(C2CCC3(CCC3)OC2)c(OC2(C(=O)NS(=O)(=O)c3cccc(N4CCC(C)(O)CC4)n3)CC2)c1 (single isomer, unassigned) [Example 11-4-2, N-((6-(4-hydroxy-4-methylpiperidin-1-yl)pyridin-2-yl)sulfonyl)-1-(5-methyl-2-(5-oxaspiro[3.5]nonan-7-yl)phenoxy)cyclopropane-1-carboxamide]	–	2650	242.9
O=C(NS(=O)(=O)c1cccc(N2CC[C@H](O)C2)n1)C1(Oc2cc(Cl)ccc2N2CCCC3(CCCC3)C2)CC1 [Example 9-15, (S)-1-(5-Chloro-2-(7-azaspiro[4.5]decan-7-yl)phenoxy)-N-((6-(3-hydroxypyrrolidin-1-yl)pyridin-2-yl)sulfonyl)cyclopropanecarboxamide]	477	290	–
C=C(c1ccc(F)cc1OC1(C(=O)NS(=O)(=O)c2cccc(N3CCN(c4ccccc4)CC3)n2)CC1)C(F)(F)F [Example 4-18, 1-(5-Fluoro-2-(3,3,3-trifluoroprop-1-en-2-yl)phenoxy)-N-((6-(4-phenylpiperazin-1-yl)pyridin-2-yl)sulfonyl)cyclopropane-1-carboxamide]	160	3390	–
CC1(C)CCCN(c2ccc(Cl)cc2OC2(C(=O)NS(=O)(=O)c3cccc(N4CC[C@@](C)(O)C4)n3)CC2)C1 [Example 9-30, (R)-1-(5-Chloro-2-(3,3-dimethylpiperidin-1-yl)phenoxy)-N-((6-(3-hydroxy-3-methylpyrrolidin-1-yl)pyridin-2-yl)sulfonyl)cyclopropanecarboxamide]	590	590	–
CC(C)(C)C1CCC(Nc2ccc(Cl)cc2OC2(C(=O)NS(=O)(=O)c3cccc(N4CC[C@H](O)C4)n3)CC2)CC1 (single isomer, unassigned) [Example 9-5-2]	–	330	678.4
CC1(C)CCN(c2ccc(Cl)cc2OC2(C(=O)NS(=O)(=O)c3cccc(N4CC[C@](C)(O)C4)n3)CC2)CC1 [Example 10-1, (S)-1-(5-chloro-2-(4,4-dimethylpiperidin-1-yl)phenoxy)-N-((6-(3-hydroxy-3-methylpyrrolidin-1-yl)pyridin-2-yl)sulfonyl)cyclopropanecarboxamide]	547	530	–
Cc1ccc(OC2CCC(C(C)(C)C)CC2)c(OC2(C(=O)NS(=O)(=O)c3cccc(N4CC[C@H](O)C4)n3)CC2)c1 (stereo partly drawn) [Example 6-4, (S)-1-(2-((4-(tert-butyl)cyclohexyl)oxy)-5-methylphenoxy)-N-((6-(3-hydroxypyrrolidin-1-yl)pyridin-2-yl)sulfonyl)cyclopropanecarboxamide]	526	330	–
O=C(NS(=O)(=O)c1cccc(N2CC[C@H](O)C2)n1)C1(Oc2cc(Cl)ccc2-c2ccc(F)c(C(F)(F)F)c2)CC1 [Example 5-7]	279	1380	–
O=C(NS(=O)(=O)c1cccc(N2CC[C@@H](O)C2)n1)C1(Oc2cc(Cl)ccc2C2CC3(CCC3)C2)CC1 [Example 7-19, (R)-1-(5-Chloro-2-(spiro[3.3]heptan-2-yl)phenoxy)-N-((6-(3-hydroxypyrrolidin-1-yl)pyridin-2-yl)sulfonyl)cyclopropane-1-carboxamide]	350	1050	–
Cc1ccc(-c2cc(C(F)(F)F)ccn2)c(OC2(C(=O)NS(=O)(=O)c3cccc(N4CC[C@H](O)C4)n3)CC2)c1 [Example 5-13, (S)—N-((6-(3-Hydroxypyrrolidin-1-yl)pyridin-2-yl)sulfonyl)-1-(5-methyl-2-(4-(trifluoromethyl)pyridin-2-yl)phenoxy)cyclopropane-1-carboxamide]	513	2080	–
CC(C)(C)C1CCN(c2ccc(Cl)cc2OC2(C(=O)NS(=O)(=O)c3cccc(N4CC[C@H](O)C4)n3)CC2)CC1 [Example 9-34, (S)-1-(2-(4-(Tert-butyl)piperidin-1-yl)-5-chlorophenoxy)-N-((6-(3-hydroxypyrrolidin-1-yl)pyridin-2-yl)sulfonyl)cyclopropanecarboxamide]	152	910	–
Cc1ccc(C2CCC(C)(C)OC2)c(OC2(C(=O)NS(=O)(=O)c3cccc(N4CCC(O)(C(F)(F)F)CC4)n3)CC2)c1 (single isomer, unassigned) [Example 11-2-1, 1-(2-(6,6-Dimethyltetrahydro-2H-pyran-3-yl)-5-methylphenoxy)-N-((6-(4-hydroxy-4-(trifluoromethyl)piperidin-1-yl)pyridin-2-yl)sulfonyl)cyclopropane-1-carboxamide]	–	1860	473.8
CC1(C)CCN(c2ccc(Cl)cc2OC2(C(=O)NS(=O)(=O)c3cccc(N)n3)CC2)CC1 [Example 9-45, N-((6-Aminopyridin-2-yl)sulfonyl)-1-(5-chloro-2-(4,4-dimethylpiperidin-1-yl)phenoxy)cyclopropane-1-carboxamide]	189	2170	–
